The values below are quoted from earlier work in patent US20240252671A1, “NEODEGRADER-ANTI-CD33 ANTIBODY CONJUGATES” (priority 2021, published 2024).

The test system of one series is Kasumi-6. The conditions noted are these: stated as known; cited from earlier work.
The next series deals with AML-193. The conditions noted are these: stated as known; cited from earlier work.

Turning to “Mylotarg: a CD33-targeting ADC clinically approved for the treatment of AML”, the “sensitivity of cell line to Mylotarg” value with Kasumi-6 and in the series with AML-193 was “insensitive” throughout.
